The record followed here is patent US20170119892A1, “REFILLABLE DRUG DELIVERY DEVICES AND METHODS OF USE THEREOF” (President and Fellows of Harvard College, priority 2014, published 2017).

The test system of series [1] is MDA-MB-231 xenograft tumors. Nature of the series: Xenograft tumor study with drug refilling. The class given is in vivo, J:Nu mice. The following applies: 120 ug doxorubicin per animal IV weekly.
Description: Tumors were created by injecting 10^6 MDA-MB-231 cells (American Type Culture Collection, VA) combined with Matrigel (BD Biosciences, CA) to a total volume of 200 μL (100 μL PBS and 100 μL Matrigel) into the hind limbs of 8 week old J:Nu (Foxn1^nu/Foxn1^nu) mice (Jackson Labs, ME). 35 days following tumor inoculation tumors were injected with alginate gels. 20 mg/mL alginate conjugated to DNA (thioT-SH or unconjugated) was mixed with doxorubicin (1.6 mg drug per mL of gel), then crosslinked with 4% wt/v CaSO4 (1.22 M) and then 50 μL of gel were injected into tumors with a 23-gauge needle. 2, 3, 4, and 5 weeks after initial tumoral gel injection, mice were injected retro-orbitally with 100 μL 0.5% DNA-conjugated alginate carrying doxorubicin (5% oxidized alginate, thioA-SH, Dye-750, 160 ug Dox-hydrazide=120 μg Dox). Throughout the study, tumor area was measured twice per week with digital calipers in two dimensions and the product of the two dimensional values was used to approximate tumor area. Mice were sacrificed on day 49. […]
Immunocompromised mice bearing MDA-MB-231 xenograft tumors were injected intra-tumor with phosphorothioate DNA-conjugated alginate gels releasing doxorubicin (80 ug per animal) or bolus doxorubicin in PBS. […] The ability of targeted therapy to reduce tumor size was assessed by monitoring the change in tumor size in the three days following each IV administration.
For series [2], the system named is Alginate conjugated to (T)20 oligonucleotides, ionically crosslinked with calcium to form a gel. Nature of the series: Binding of fluorescently-labeled oligonucleotides to DNA-conjugated calcium-alginate gels in vitro. The following applies: phosphate buffer with 1 mM calcium chloride.
Series [3] in a line: Alginate circulation time in the blood. The class given is in vivo, C57/B6 mice. The method, then:
C57/B6 mice were injected retro-orbitally with 100 μL 0.5% fluorescent alginate (unoxidized alginate, Dye-750). Mice were shaved on the front and back and imaged with an IVIS Spectrum in vivo imager (ex: 745, em: 820) over 30 days. Shaving was repeated before every image collection. Fluorescence in the blood was measured through quantification of fluorescence in the snout area.
Efficient blood-based refilling of drug payloads relies on sufficient circulation lifetimes that allow payloads to encounter and bind to the primary device. The circulation time of alginate (285 KDa, 44 nm hydrodynamic radius (Rh)) conjugated to a near-IR probe (FIG. 6A) was analyzed following intravenous (IV) administration to mice. […] With a long circulation time, alginate can serve as an efficient intra-vascular drug carrier with the capability of extravasating and interacting with the primary drug delivery device.

Regarding `COc1cccc2c1C(=O)c1c(O)c3c(c(O)c1C2=O)C[C@@](O)(C(=O)CO)C[C@@H]3O[C@H]1C[C@H](N)[C@H](O)[C@H](C)O1` [doxorubicin], the “change in tumor size in the three days following each IV administration” value in series [1] is listed as “continued to grow”.

With “(A)20: fluorescently-labeled AAAAAAAAAAAAAAAAAAAA-FAM oligonucleotide, SEQ ID NO: 6”, in series [2], the “binding of fluorescently-labeled oligonucleotides to gel surface” value is recorded as “bound to the gel surface in a sequence-specific manner”.

With “(T)20: fluorescently-labeled TTTTTTTTTTTTTTTTTTTT-FAM oligonucleotide, SEQ ID NO: 5”, in series [2], the “binding of fluorescently-labeled oligonucleotides to gel surface” value is reported as “little binding”.

With alginate, the circulatory half-life entry in series [3] (IV administration to mice) is given as “about seven”. The remained in circulation result in series [3] (IV administration to mice, blood fluorescence measured at snout) is on record as “at least 14 days”. Moreover, in series [3] (two days after injection), the “organ accumulation (imaging of individual organs)” value was “accumulation in the lungs, liver, spleen, and to a lesser extent in the kidneys”.
